# Measured values taken from patent US20240116889A1, “ANTIVIRAL COMPOUNDS AND METHODS” (priority 2019, published 2024).
# How the values were obtained:
# NPTr cells = conditions: for cell viability after priming: 30 min priming at doses used for infection studies
# [1] = tested on: extracellular Ca^2+ influx; test: Intracellular Ca2+ monitoring assay (Fluo-8) in NPTr cells; format: cell-based, pig
# RIG-I, OAS1 and PKR = format: cell-based, pig; conditions: NPTr cells (TG also NHBE cells and myoblasts); priming before or during infection
# USSR H1N1 virus [2] = format: cell-based, influenza A virus (A/USSR/77)
# pdm H1N1 virus = format: cell-based, influenza A virus (A/California/07/2009)
# human coronavirus OC43 = format: cell-based; conditions: MRC-5 cells; TG 0.05 or 0.5 μM 30 min pre-infection; HC pre-infection or continuous
# SARS-CoV-2 = SARS-CoV-2 replication in Calu-3 cells (RT-qPCR of media); format: cell-based; conditions: Calu-3 cells; […]; HC primed and continuously present
# USSR H1N1 virus [3] = format: cell-based, influenza A virus (A/USSR/77); remark: listed apart in the source
# [4] = tested on: RSV (A2 strain, ATCC VR-1540); test: RSV production from infected HEp2 cells (immuno-detection / RT-qPCR); format: cell-based, human respiratory syncytial virus; conditions: HEp-2 cells; TG 30 min priming, Riba continuously present; four days post-infection
# A549 cells = test: Cell viability of A549 cells (CellTiter-Glo 2.0); format: cell-based, human; conditions: RDV continuous, TG 30 min, overnight
# Protocol: (A) A549 cells were primed with indicated TG, 0.3 μM RDV or DMSO control for 30 min, washed twice with PBS and infected with 0.01 MOI of CoV OC43 for 2 h, after which cells were washed again with PBS and incubated in fresh infection media (OptiMEM supplemented with 0.1 μg/ml TPCK-trypsin for TG primed cells, or fresh media in the continuous presence of RDV. At 24, 48 and 72 hpi, viral RNA extraction was performed on collected supernatants followed by one-step reverse transcription qPCR to detect the relative copy number of hCoV OC43 replicase polyprotein lab RNA, based on relative Ct method. Indicated significance relative to corresponding RDV-treated cells based on 2-way ANOVA Tukey's multiple comparisons test. (B) As in (A), A549 cells were primed continuously with RDV, or for 30 min with indicated TG or DMSO, washed, cultured overnight and subjected to cell viability assay (CellTiter-Glo 2.0 Cell Viability Assay, Promega).
compound,measurement,setting,value
"CC(=O)C1=C(O)[C@@H]2[C@H]3c4c[nH]c5cccc(c45)C[C@H]3C(C)(C)N2C1=O [CPA, Cyclopiazonic acid]",reduction in ATP production,"NPTr cells; 5 μM CPA for 30 min, 24 h incubation",8.3%
same,concentration from which Ca^2+ influx was detected,[1],≥ 10 µM
tunicamycin,cell viability after priming,NPTr cells,did not affect cell viability
same,extracellular Ca^2+ influx,[1]; non-toxic doses (CPA up to 5 μM; TG 10 min),did not induce Ca^2+ influx
same,expression of type I IFN associated genes in response to infection,"RIG-I, OAS1 and PKR",little change in the expression of type I IFN associated genes
same,progeny virus output vs DMSO control,USSR H1N1 virus [2],only slightly reduced virus production
same,virus production relative to correspondingly infected TG primed cells,"USSR H1N1 virus [2]; NPTr cells, […]",7.5 times
same,progeny virus output vs DMSO control,pdm H1N1 virus,only slightly reduced virus production
same,virus production relative to correspondingly infected TG primed cells,"pdm H1N1 virus; NPTr cells, […]",2.8 times
Cc1nnsc1C(=O)Nc1ccc(-n2nc(C(F)(F)F)cc2C(F)(F)F)cc1 [BTP2],cell viability after priming,NPTr cells,Non-toxic
same,progeny virus output vs DMSO control,USSR H1N1 virus [2],small increase in progeny virus release
"CCN(CCO)CCCC(C)Nc1ccnc2cc(Cl)ccc12 (stereo not drawn) [HC, hydroxychloroquine, reference compound]",hCoV OC43 replication / progeny production,human coronavirus OC43,required its continuous presence during infection
same,SARS-CoV-2 replication,SARS-CoV-2,no consistent effect
"C=C1C(=O)O[C@@H]2[C@H]3C(C)=CC(=O)C3=C(C)CC[C@@H]12 [dehydroleucodine, reference compound]",progeny virus output,USSR H1N1 virus [3],reduced progeny virus output
same,progeny virus output vs DMSO control,USSR H1N1 virus [2],reduced virus production like that of TG
C[C@@H]1CC[C@H]2[C@@H](C)C(=O)O[C@@H]3O[C@@]4(C)CC[C@@H]1[C@]32OO4 [artemisinin],progeny virus output vs DMSO control,USSR H1N1 virus [2],reduces progeny viral output
same,progeny virus output vs DMSO control,pdm H1N1 virus,reduces progeny viral output
"NC(=O)c1ncn([C@@H]2O[C@H](CO)[C@@H](O)[C@H]2O)n1 [Riba, ribavirin, reference compound]","RSV progeny virus production, viral M-gene RNA",[4],significantly inhibited
"CCC(CC)COC(=O)[C@H](C)N[P@](=O)(OC[C@H]1O[C@@](C#N)(c2ccc3c(N)ncnn23)[C@H](O)[C@@H]1O)Oc1ccccc1 [RDV, remdesivir, reference compound]",cell viability,A549 cells,no adverse effect on cell viability
CC1=C2[C@H](/C=C(\C)C(=O)O)CC[C@@H](C)[C@H]2CC1 [valerenic acid],progeny virus output vs DMSO control,USSR H1N1 virus [2],reduced USSR H1N1 virus production like that of TG
"CC1=C2CC[C@@H](C)[C@H]2[C@H]2[C@@H](CC1)C2(C)C [(+)-ledene, reference compound]",progeny virus output,USSR H1N1 virus [3],dramatic reduction in progeny virus output
same,progeny virus output vs DMSO control,USSR H1N1 virus [2],reduced virus production like that of TG
COc1ccc(OC)c(-c2ccc(NC(=O)c3ccncc3F)cc2)c1 [Synta66],cell viability after priming,NPTr cells,Non-toxic
same,progeny virus output vs DMSO control,USSR H1N1 virus [2],small increase in progeny virus release
